Several values for one entry are separate records, joined by “and”; a condition that tells them apart may be missing. Equal values may be shown once. Blank lines part the entries; values can stand above or below the compound they belong to.
How the values were obtained:
human α-thrombin = human α-thrombin (Homo sapiens, UniProt P00734); experiment: Protease inhibition, Ki for human α-thrombin (fluorogenic substrate Z-Gly-Gly-Arg-AMC); type: biochemical; details: replicates R1-R3
Method in brief: (§1)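 Ki derived through Cheng–Prusoff from IC50s (four-parameter logistic fit) against activity of peptide-free controls. Product fluorescence was read every 3 min over 30 min at 25 °C, substrate Z-Gly-Gly-Arg-AMC at 50 μM. Enzyme was 2 nM human or 3 nM rat α-thrombin, pH 7.4 buffer.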

rat α-thrombin = molecular target: T1, rat α-thrombin (Rattus norvegicus, UniProt P18292); experiment: Protease inhibition, Ki for rat α-thrombin (fluorogenic substrate Z-Gly-Gly-Arg-AMC); type: biochemical; details: replicates R1-R3
T1 construct: rat α-thrombin (Molecular Innovations) were used at final concentrations of 2 nM and 3 nM; purchased Molecular Innovations
Method in brief: as §1

porcine pancreatin = experiment: Peptide stability in simulated intestinal fluid (SIF); type: in vitro ADME; details: after 8 h vs 0 h (TIC); for SIF stability, Residual peptide Average: average of R1-R3; for SIF stability, Residual peptide: single replicates R1-R3
Method in brief: (§2)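 Peptide from a 1 mM DMSO stock was added to fluid pre-warmed at 37 °C. SGF was pH 1.2 NaCl with porcine pepsin (0.32 g per 100 ml), and SIF was pH 6.8 potassium phosphate with porcine pancreatin (1 g per 100 ml). Supernatant peptide was quantified by LC–MS, with residual expressed as T1/T0.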

[1] = as above; type: in vitro ADME, porcine; details: simulated gi fluid; 8 h, 37 °C, pH 6.8; read-out: Proteolytic stability: SIF (8 h) % remaining
Method in brief: as §2

porcine pepsin = molecular target: T2, porcine pepsin (Sus scrofa, UniProt P00791); experiment: Peptide stability in simulated gastric fluid (SGF); type: in vitro ADME; details: for SGF stability, Residual peptide Average / SGF stability, Residual peptide: after 8 h vs 0 h (TIC); for SGF stability, Residual peptide Average: average of R1-R3; for SGF stability, Residual peptide: single replicates R1-R3; for remaining at 8 h: simulated gi fluid, 37 °C, pH 1.2, read-out: Proteolytic stability: SGF (8 h) % remaining
T2 construct: 0.32 g of porcine pepsin (Sigma-Aldrich, P7125) was dissolved under gentle agitation; purchased Sigma-Aldrich P7125
T2 sequence (P00791 60-385): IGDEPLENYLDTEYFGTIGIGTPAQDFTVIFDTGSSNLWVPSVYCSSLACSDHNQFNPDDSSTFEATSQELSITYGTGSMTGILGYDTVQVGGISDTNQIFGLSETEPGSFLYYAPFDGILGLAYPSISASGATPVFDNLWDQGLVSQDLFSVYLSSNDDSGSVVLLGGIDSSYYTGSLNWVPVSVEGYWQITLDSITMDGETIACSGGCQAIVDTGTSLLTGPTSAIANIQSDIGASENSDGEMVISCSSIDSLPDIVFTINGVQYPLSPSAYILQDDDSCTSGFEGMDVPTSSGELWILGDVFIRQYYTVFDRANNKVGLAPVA
Method in brief: as §2

[2] = Metabolic stability in rat liver microsomes (RLMs); details: rat, microsomes
[3] = Passive artificial membrane permeability (PAMPA); details: for PAMPA permeability: % permeability: 50 μM, 12–18 h, acceptor concentration relative to equilibrium; for Papp at 50 μM / Permeability% Average / Permeability% R1 / Permeability% R3: PAMPA; for Papp at 50 μM: pH 7.4; for Permeability% Average: average of R1-R3; for Permeability% R1: replicate R1; for Permeability% R1 / Permeability% R3: TIC of top well sample relative to sample at theoretical equilibrium; for Permeability% R3: replicate R3
[4] = peptide 1.33E+02 uM, slope of proteolytic substrate cleavage over time
[5] = CL (ul/min/mg protein) R1, RLM CL, replicate R1
[6] = CL (ul/min/mg protein) R2, RLM CL, replicate R2
[7] = CL (ul/min/mg protein) R3, RLM CL, replicate R3
[8] = Half Life (min) R1, RLM metabolic stability, replicate R1, 0-60 min
[9] = Half Life (min) R2, RLM metabolic stability, replicate R2, 0-60 min
[10] = Half Life (min) R3, RLM metabolic stability, replicate R3, 0-60 min
[11] = Metabolic stability: Half life T1/2 (min), RLMs, mean and SD, three measurements
[12] = Metabolic stability: RLM CL (ul/min/mg), RLMs, mean and SD, three measurements

- Human alpha thrombin inhibition, slope normalized to DMSO (human α-thrombin; peptide 1.02E-03 uM): 91.9 and 90.1 and 93.2
- Human alpha thrombin inhibition, slope normalized to DMSO (human α-thrombin; peptide 1.04E+00 uM): 79.8 and 81.1 and 79.3
- Human alpha thrombin inhibition, slope normalized to DMSO (human α-thrombin; peptide 1.27E-04 uM): 96.4 and 91.3 and 88.2
- Human alpha thrombin inhibition, slope normalized to DMSO (human α-thrombin; peptide 1.30E-01 uM): 96.0 and 91.0 and 92.0
- Human alpha thrombin inhibition, slope normalized to DMSO (human α-thrombin; [4]): 8.4 and 8.5 and -2.6
- Human alpha thrombin inhibition, slope normalized to DMSO (human α-thrombin; peptide 1.63E-02 uM): 97.2 and 84.3 and 96.8
- Human alpha thrombin inhibition, slope normalized to DMSO (human α-thrombin; peptide 1.67E+01 uM): 30.4 and 33.6 and 42.3
- Human alpha thrombin inhibition, slope normalized to DMSO (human α-thrombin; peptide 2.03E-03 uM): 97.8 and 93.0 and 96.6
- Human alpha thrombin inhibition, slope normalized to DMSO (human α-thrombin; peptide 2.08E+00 uM): 73.0 and 70.9 and 73.9
- Human alpha thrombin inhibition, slope normalized to DMSO (human α-thrombin; peptide 2.54E-04 uM): 99.0 and 94.8 and 97.2
- Human alpha thrombin inhibition, slope normalized to DMSO (human α-thrombin; peptide 2.60E-01 uM): 91.4 and 88.4 and 89.4
- Human alpha thrombin inhibition, slope normalized to DMSO (human α-thrombin; peptide 3.18E-05 uM): 91.8 and 117.4 and 98.4
- Human alpha thrombin inhibition, slope normalized to DMSO (human α-thrombin; peptide 3.26E-02 uM): 94.8 and 91.6 and 96.2
- Human alpha thrombin inhibition, slope normalized to DMSO (human α-thrombin; peptide 3.33E+01 uM): 18.0 and 18.8 and 20.4
- Human alpha thrombin inhibition, slope normalized to DMSO (human α-thrombin; peptide 4.07E-03 uM): 93.4 and 91.5 and 94.8
- Human alpha thrombin inhibition, slope normalized to DMSO (human α-thrombin; peptide 4.17E+00 uM): 59.5 and 58.3 and 61.9
- Human alpha thrombin inhibition, slope normalized to DMSO (human α-thrombin; peptide 5.09E-04 uM): 97.5 and 92.8 and 99.8
- Human alpha thrombin inhibition, slope normalized to DMSO (human α-thrombin; peptide 5.21E-01 uM): 87.6 and 85.1 and 86.8
- Human alpha thrombin inhibition, slope normalized to DMSO (human α-thrombin; peptide 6.36E-05 uM): 100.5 and 90.1 and 98.6
- Human alpha thrombin inhibition, slope normalized to DMSO (human α-thrombin; peptide 6.51E-02 uM): 92.5 and 91.3 and 93.7
- Human alpha thrombin inhibition, slope normalized to DMSO (human α-thrombin; peptide 6.67E+01 uM): 11.3 and 18.5 and 12.0
- Human alpha thrombin inhibition, slope normalized to DMSO (human α-thrombin; peptide 8.14E-03 uM): 94.9 and 92.1 and 95.9
- Human alpha thrombin inhibition, slope normalized to DMSO (human α-thrombin; peptide 8.33E+00 uM): 50.4 and 48.8 and 50.8
- Rat alpha thrombin inhibition, slope normalized to DMSO (rat α-thrombin; [4]): 2.4 and 2.8 and 19.0
- Rat alpha thrombin inhibition, slope normalized to DMSO (rat α-thrombin; peptide 1.67E+01 uM): 12.7 and 12.2 and 32.4
- Rat alpha thrombin inhibition, slope normalized to DMSO (rat α-thrombin; peptide 2.08E+00 uM): 50.5 and 50.4 and 69.3
- Rat alpha thrombin inhibition, slope normalized to DMSO (rat α-thrombin; peptide 3.33E+01 uM): 7.4 and 6.9 and 24.6
- Rat alpha thrombin inhibition, slope normalized to DMSO (rat α-thrombin; peptide 4.17E+00 uM): 35.4 and 36.2 and 53.3
- Rat alpha thrombin inhibition, slope normalized to DMSO (rat α-thrombin; peptide 6.67E+01 uM): 5.7 and 4.4 and 22.7
- Rat alpha thrombin inhibition, slope normalized to DMSO (rat α-thrombin; peptide 8.33E+00 uM): 23.3 and 24.4 and 38.9
- SIF stability, Residual peptide Average (porcine pancreatin): 91.31
- SIF stability, Residual peptide (porcine pancreatin): 90.99 and 82.41 and 100.52
- remaining at 8 h [1]: 91 ± 9%
- SGF stability, Residual peptide Average (porcine pepsin): 98.66
- SGF stability, Residual peptide (porcine pepsin): 100.45 and 94.90 and 100.63
- remaining at 8 h (porcine pepsin): 99 ± 3%
- microsomal CLint [2, 5]: 73.8 µL/min/mg
- microsomal CLint [2, 6]: 70.2 µL/min/mg
- microsomal CLint [2, 7]: 77.1 µL/min/mg
- half-life [2, 8]: 18.8 min
- half-life [2, 9]: 19.7 min
- half-life [2, 10]: 18 min
- half-life [2, 11]: 18.8 ± 0.7 min
- microsomal CLint [2, 12]: 74 ± 3 µL/min/mg
- PAMPA permeability: % permeability [3]: 63 ± 5%
- Papp at 50 μM [3]: 6.46 ×10⁻⁶ cm/s
- Permeability% Average [3]: 62.6%
- Permeability% R1 [3]: 59.23%
- Permeability% R3 [3]: 59.76%
SMILES: O=C1NCCSCc2cccc(n2)CSCCC(=O)N2CCC[C@H]2C(=O)N2CCN(C(=O)c3ccc(Cl)s3)CC12 (some centres unmarked) [compound 23]

- Human alpha thrombin inhibition, slope normalized to DMSO (human α-thrombin; peptide 1.02E-03 uM): 95.9 and 98.2 and 97.4
- Human alpha thrombin inhibition, slope normalized to DMSO (human α-thrombin; peptide 1.04E+00 uM): 81.9 and 85.8 and 83.3
- Human alpha thrombin inhibition, slope normalized to DMSO (human α-thrombin; peptide 1.27E-04 uM): 100.0
- Human alpha thrombin inhibition, slope normalized to DMSO (human α-thrombin; peptide 1.30E-01 uM): 95.8 and 97.8
- Human alpha thrombin inhibition, slope normalized to DMSO (human α-thrombin; [4]): 5.8 and 7.8 and 9.3
- Human alpha thrombin inhibition, slope normalized to DMSO (human α-thrombin; peptide 1.63E-02 uM): 98.1 and 95.1
- Human alpha thrombin inhibition, slope normalized to DMSO (human α-thrombin; peptide 1.67E+01 uM): 24.2 and 34.4 and 34.5
- Human alpha thrombin inhibition, slope normalized to DMSO (human α-thrombin; peptide 2.03E-03 uM): 107.0
- Human alpha thrombin inhibition, slope normalized to DMSO (human α-thrombin; peptide 2.08E+00 uM): 75.9 and 67.7 and 77.5
- Human alpha thrombin inhibition, slope normalized to DMSO (human α-thrombin; peptide 2.54E-04 uM): 106.8 and 94.5 and 91.2
- Human alpha thrombin inhibition, slope normalized to DMSO (human α-thrombin; peptide 2.60E-01 uM): 93.5 and 89.6 and 97.8
- Human alpha thrombin inhibition, slope normalized to DMSO (human α-thrombin; peptide 3.18E-05 uM): 101.5 and 97.9 and 106.2
- Human alpha thrombin inhibition, slope normalized to DMSO (human α-thrombin; peptide 3.26E-02 uM): 103.3 and 97.7 and 104.2
- Human alpha thrombin inhibition, slope normalized to DMSO (human α-thrombin; peptide 3.33E+01 uM): 16.8 and 22.5 and 20.8
- Human alpha thrombin inhibition, slope normalized to DMSO (human α-thrombin; peptide 4.07E-03 uM): 97.2 and 91.1
- Human alpha thrombin inhibition, slope normalized to DMSO (human α-thrombin; peptide 4.17E+00 uM): 54.3 and 66.2 and 66.1
- Human alpha thrombin inhibition, slope normalized to DMSO (human α-thrombin; peptide 5.09E-04 uM): 94.9 and 97.9
- Human alpha thrombin inhibition, slope normalized to DMSO (human α-thrombin; peptide 5.21E-01 uM): 90.1 and 82.7 and 89.7
- Human alpha thrombin inhibition, slope normalized to DMSO (human α-thrombin; peptide 6.36E-05 uM): 101.8 and 98.6 and 104.2
- Human alpha thrombin inhibition, slope normalized to DMSO (human α-thrombin; peptide 6.51E-02 uM): 97.4 and 97.6
- Human alpha thrombin inhibition, slope normalized to DMSO (human α-thrombin; peptide 6.67E+01 uM): 12.2 and 13.3 and 13.7
- Human alpha thrombin inhibition, slope normalized to DMSO (human α-thrombin; peptide 8.14E-03 uM): 97.0 and 98.1 and 103.6
- Human alpha thrombin inhibition, slope normalized to DMSO (human α-thrombin; peptide 8.33E+00 uM): 51.4 and 50.3 and 44.5
- Rat alpha thrombin inhibition, slope normalized to DMSO (rat α-thrombin; [4]): 3.2 and 2.1 and 2.4
- Rat alpha thrombin inhibition, slope normalized to DMSO (rat α-thrombin; peptide 1.67E+01 uM): 12.6 and 11.9 and 11.7
- Rat alpha thrombin inhibition, slope normalized to DMSO (rat α-thrombin; peptide 2.08E+00 uM): 49.1 and 48.5 and 49.4
- Rat alpha thrombin inhibition, slope normalized to DMSO (rat α-thrombin; peptide 3.33E+01 uM): 7.2 and 6.5 and 6.2
- Rat alpha thrombin inhibition, slope normalized to DMSO (rat α-thrombin; peptide 4.17E+00 uM): 33.5 and 33.2 and 33.1
- Rat alpha thrombin inhibition, slope normalized to DMSO (rat α-thrombin; peptide 6.67E+01 uM): 4.2 and 3.4 and 3.2
- Rat alpha thrombin inhibition, slope normalized to DMSO (rat α-thrombin; peptide 8.33E+00 uM): 18.9 and 18.7 and 17.7
- SIF stability, Residual peptide Average (porcine pancreatin): 94.64
- SIF stability, Residual peptide (porcine pancreatin): 97.98 and 88.07 and 97.88
- remaining at 8 h [1]: 95 ± 6%
- SGF stability, Residual peptide Average (porcine pepsin): 99.25
- SGF stability, Residual peptide (porcine pepsin): 102.40 and 99.33 and 96.01
- remaining at 8 h (porcine pepsin): 99 ± 3%
- microsomal CLint [2, 5]: 75.7 µL/min/mg
- microsomal CLint [2, 6]: 76.9 µL/min/mg
- microsomal CLint [2, 7]: 68.3 µL/min/mg
- half-life [2, 8]: 18.3 min
- half-life [2, 9]: 18 min
- half-life [2, 10]: 20.3 min
- half-life [2, 11]: 18.9 ± 1 min
- microsomal CLint [2, 12]: 74 ± 4 µL/min/mg
- PAMPA permeability: % permeability [3]: 2.0 ± 1.7%
- Papp at 50 μM [3]: 0.049 ×10⁻⁶ cm/s
- Permeability% Average [3]: 2.0%
- Permeability% R1 [3]: 0.0459%
- Permeability% R3 [3]: 3.39%
SMILES: O=C1CCSCc2cccc(n2)CSCCNC(=O)C2CN(C(=O)c3ccc(Cl)s3)CCN2C(=O)[C@H](CO)N1 (some centres unmarked) [compound 24]

Reference: publication PMC11062899, “De novo development of small cyclic peptides that are orally bioavailable” (Nature Chemical Biology, 2023)
